Source: BigSolDB 2.1

O=C1CCCC(=O)C1
solubility (mole fraction)
Details | 288.15 K | 293.15 K | 298.15 K | 303.15 K | 308.15 K | 313.15 K | 318.15 K | 323.15 K | 328.15 K
in 2-butanone | 0.0273 | 0.0355 | 0.0534 | 0.0727 | 0.0991 | 0.133 | 0.162 | 0.215 | 0.264
in THF | 0.0855 | 0.109 | 0.135 | 0.164 | 0.208 | 0.246 | 0.307 | 0.347 | 0.392
in acetone | 0.0488 | 0.0624 | 0.0834 | 0.108 | 0.132 | 0.173 | 0.211 | 0.245 | 0.282
in acetonitrile | 0.0156 | 0.0198 | 0.0258 | 0.035 | 0.044 | 0.0538 | 0.0685 | 0.09 | 0.113
in chloroform | 0.238 | 0.256 | 0.29 | 0.317 | 0.364 | 0.4 | 0.432 | 0.47 | 0.505
in ethyl acetate | 0.0126 | 0.0155 | 0.0194 | 0.0244 | 0.0307 | 0.039 | 0.0515 | 0.0626 | 0.0819
in ethyl butyrate | 0.0083 | 0.0103 | 0.0125 | 0.0148 | 0.0184 | 0.0221 | 0.0266 | 0.0322 | 0.0379
in ethyl formate | 0.0109 | 0.0141 | 0.0182 | 0.0231 | 0.0287 | 0.0359 | 0.0492 | 0.0591 | 0.0694
in ethyl propionate | 0.0118 | 0.0139 | 0.017 | 0.0203 | 0.0246 | 0.0294 | 0.0353 | 0.041 | 0.0495
in isopropyl acetate | 0.0125 | 0.0146 | 0.017 | 0.0194 | 0.0228 | 0.0269 | 0.0302 | 0.0368 | 0.0424
in methyl acetate | 0.0146 | 0.02 | 0.0247 | 0.0313 | 0.0406 | 0.0524 | 0.0714 | 0.0886 | 0.105
in n-butyl acetate | 0.0119 | 0.0141 | 0.0168 | 0.0202 | 0.0237 | 0.0282 | 0.0347 | 0.0403 | 0.0457
in n-propyl acetate | 0.0121 | 0.0147 | 0.0176 | 0.0214 | 0.0263 | 0.0324 | 0.0381 | 0.0457 | 0.0535
in toluene | 0.00171 | 0.00244 | 0.00335 | 0.00445 | 0.00577 | 0.00803 | 0.0106 | 0.0136 | 0.0165
